Data as given in patent US10519154B2, “7-substituted 1-pyridyl-naphthyridine-3-carboxylic acid amides and use thereof” (Bayer Pharma Aktiengesellschaft, priority 2016, dated 2019).

What was measured:
human M2 receptor [1] = molecular target: T1, human M2 receptor (Homo sapiens, UniProt P08172); assay: Functional M2-GIRK1/4 activation test: allosteric potency (EC50) and efficiency; conditions: for EC50: Receptor activity EC50, CHO-DUKX-M2-GIRK cells, acetylcholine at EC20, in some cases mean of two or more determinations; for Emax: read-out: Efficiency, boosting of the acetylcholine effect at EC20 acetylcholine concentration; for Emax / Efficiency: CHO-DUKX-M2-GIRK cells; for Efficiency: boosting of the acetylcholine effect at EC20 acetylcholine concentration
T1 sequence (P08172 1-466): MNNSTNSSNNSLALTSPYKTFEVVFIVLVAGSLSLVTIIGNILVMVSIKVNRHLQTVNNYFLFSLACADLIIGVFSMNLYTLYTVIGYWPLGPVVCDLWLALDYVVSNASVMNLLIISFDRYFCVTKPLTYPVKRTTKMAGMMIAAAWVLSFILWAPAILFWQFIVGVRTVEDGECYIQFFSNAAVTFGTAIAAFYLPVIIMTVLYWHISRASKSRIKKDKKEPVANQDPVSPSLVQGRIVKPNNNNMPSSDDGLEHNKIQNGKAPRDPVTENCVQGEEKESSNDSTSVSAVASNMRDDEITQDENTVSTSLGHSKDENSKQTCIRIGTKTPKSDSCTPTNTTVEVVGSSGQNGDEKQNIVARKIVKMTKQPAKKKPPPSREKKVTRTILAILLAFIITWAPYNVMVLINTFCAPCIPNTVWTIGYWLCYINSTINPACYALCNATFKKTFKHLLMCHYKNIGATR

human M2 receptor [2] = molecular target: T1, human M2 receptor; assay: Functional M2-GIRK1/4 activation test: positive cooperativity (alpha factor); conditions: shift of acetylcholine dose-response curve (Allosteric EC50 shift); CHO-DUKX-M2-GIRK cells
Source text: The binding of orthosteric agonists (endogenous ligand: acetylcholine) to the M2 receptor leads to receptor activation or a change in conformation of the receptor in the manner of a shift in equilibrium in favor of the active receptor conformation.
The agonist-induced change in conformation of the M2 receptor results in a Gαi protein activation. […] Under physiological conditions, the result is then a selective efflux of potassium from the cell along the electrochemical gradient. […] The extent of hyperpolarization can therefore be regarded as a measure of the activation of the M2 receptor.
The test cell used is a recombinant CHO-DUKX cell line which has been stably transfected with cDNA coding for the human M2 receptor and with cDNA coding for both GIRK1/4 subunits (CHO-DUKX-M2-GIRK). The transmembrane potential, or the relative changes in the transmembrane potential as a function of substance addition or M2 activation, is determined by means of a voltage-sensitive dye (FLIPR Membrane Potential Assay Kit Blue, Molecular Devices #R8034) and the measurement of cell fluorescence using a proprietary fluorescence imaging instrument.
In accordance with the desired test concentrations, the substances were pre-diluted in loading buffer (see above).
The sowing medium consisted of MEM alpha medium (supplemented with 5% FCS, 2% Glutamax, no genticin).
For the particular measurement, the medium was removed and the cells were laden with the voltage-sensitive dye for at least 6 min at room temperature (30 μl of loading buffer per 384-well). This was followed, in a first measurement, by the determination of the resting transmembrane potential for a period of 5 sec in 1 sec increments. Thereafter, 10 μl in each case of the test substances diluted in loading buffer are added, followed by a second measurement to determine the transmembrane potential for a period of 50 sec in 1 sec increments.
Finally, the cells are admixed with 10 μl of agonist solution (acetylcholine dissolved in loading buffer). In contrast to the EC50 determination of the test substances (see B-1.1), however, this is not done using one acetylcholine concentration; instead, every concentration of the test substance is combined with an acetylcholine 8-point dose-response curve. […] The M2-mediated GIRK1/4 activation or hyperpolarization is then monitored in a third measurement over a period of 60 sec in 1 sec increments. The shift in the acetylcholine dose-response curve in the presence of increasing concentrations of the test substance is analyzed and quantified by means of GraphPad PRISM (Allosteric EC50 shift). […] Positive cooperativity is the hallmark of a positive allosteric modulator. […] The greater the magnitude of the cc value, the greater the extent of cooperativity between orthosteric and allosteric.

Structure (SMILES)	EC50 (human M2 receptor [1]) [nM]	Emax (human M2 receptor [1]) [%]	Cooperativity (alpha factor) (human M2 receptor [2])	Efficiency (human M2 receptor [1]) [%]
CC[C@H](NC(=O)c1cn(-c2ncc(F)cc2F)c2nc(N3CCNC3=O)ccc2c1=O)C(F)(F)F [Example 64, 1-(3,5-Difluoropyridin-2-yl)-4-oxo-7-(2-oxoimidazolidin-1-yl)-N-[(2S)-1,1,1-trifluorobutan-2-yl]-1,4-dihydro-1,8-naphthyridine-3-carboxamide]	154	91.3	32	
CC1CC(=O)N(c2ccc3c(=O)c(C(=O)N[C@H](C4CC4)C(F)(F)F)cn(-c4ncc(F)cc4F)c3n2)C1 (mixture of isomers) [Example 27, N-[(1R)-1-Cyclopropyl-2,2,2-trifluoroethyl]-1-(3,5-difluoropyridin-2-yl)-7-[4-methyl-2-oxopyrrolidin-1-yl]-4-oxo-1,4-dihydro-1,8-naphthyridine-3-carboxamide]	36	79	10	
O=C(NC(c1ccccc1Cl)C(F)(F)F)c1cn(-c2ncc(F)cc2F)c2nc(N3C[C@@H](O)CC3=O)ccc2c1=O (mixture of isomers) [Example 4, N-[1-(2-Chlorophenyl)-2,2,2-trifluoroethyl]-1-(3,5-difluoropyridin-2-yl)-7-[(4S)-4-hydroxy-2-oxopyrrolidin-1-yl]-4-oxo-1,4-dihydro-1,8-naphthyridine-3-carboxamide]	14	98.2	63	
O=C(Nc1c(Cl)cccc1Cl)c1cn(-c2ncc(F)cc2F)c2nc(N3C[C@@H](O)CC3=O)ccc2c1=O [Example 16, N-(2,6-Dichlorophenyl)-1-(3,5-difluoropyridin-2-yl)-7-[(4S)-4-hydroxy-2-oxopyrrolidin-1-yl]-4-oxo-1,4-dihydro-1,8-naphthyridine-3-carboxamide]	48	99	40	
CCC(COC(F)(F)F)NC(=O)c1cn(-c2ncc(F)cc2F)c2nc(N3C[C@@H](O)CC3=O)ccc2c1=O (single isomer, unassigned) [Example 19]	86		38	91.50
CCC(COC(F)(F)F)NC(=O)c1cn(-c2ncc(F)cc2F)c2nc(N3C[C@@H](O)CC3=O)ccc2c1=O (mixture of isomers) [Example 17, 1-(3,5-Difluoropyridin-2-yl)-7-[(4S)-4-hydroxy-2-oxopyrrolidin-1-yl]-4-oxo-N-[1-(trifluoromethoxy)butan-2-yl]-1,4-dihydro-1,8-naphthyridine-3-carboxamide]	111	88	24	
CC1CC(=O)N(c2ccc3c(=O)c(C(=O)N[C@H](C4CC4)C(F)(F)F)cn(-c4ncc(F)cc4F)c3n2)C1 (single isomer, unassigned) [Example 28]	19	100	17	
CCC(COC(F)(F)F)NC(=O)c1cn(-c2ncc(F)cc2F)c2nc(N3C[C@@H](O)CC3=O)ccc2c1=O (single isomer, unassigned) [Example 18]	67	87	34	

Further lines, results first:

EC50 (human M2 receptor [1]) [nM]	Emax (human M2 receptor [1]) [%]	Cooperativity (alpha factor) (human M2 receptor [2])	Efficiency (human M2 receptor [1]) [%]	Structure (SMILES)
10	100	68		CC(C)(C)[C@@H](NC(=O)c1cn(-c2ncc(F)cc2F)c2nc(N3C[C@@H](O)CC3=O)ccc2c1=O)C(F)(F)F [Example 73, 1-(3,5-Difluoropyridin-2-yl)-7-[(4S)-4-hydroxy-2-oxopyrrolidin-1-yl]-4-oxo-N-[(2R)-1,1,1-trifluoro-3,3-dimethylbutan-2-yl]-1,4-dihydro-1,8-naphthyridine-3-carboxamide]
14	98	41		CCC(NC(=O)c1cn(-c2ncc(F)cc2F)c2nc(N3C[C@@H](O)CC3=O)ccc2c1=O)C(F)(F)C(F)(F)F (single isomer, unassigned) [Example 93]
34	100	68		O=C(NC(C(F)(F)F)C(F)(F)F)c1cn(-c2ncc(F)cc2F)c2nc(N3C[C@@H](O)[C@H](O)C3)ccc2c1=O [Example 56, 1-(3,5-Difluoropyridin-2-yl)-7-[(3R,4R)-3,4-dihydroxypyrrolidin-1-yl]-N-(1,1,1,3,3,3-hexafluoropropan-2-yl)-4-oxo-1,4-dihydro-1,8-naphthyridine-3-carboxamide]
110	100	79		O=C(NC(C(F)(F)F)C(F)(F)F)c1cn(-c2ncc(F)cc2F)c2nc(N3C[C@@H](O)[C@@H](O)C3)ccc2c1=O [Example 55, 1-(3,5-Difluoropyridin-2-yl)-7-[(3R,4S)-3,4-dihydroxypyrrolidin-1-yl]-N-(1,1,1,3,3,3-hexafluoropropan-2-yl)-4-oxo-1,4-dihydro-1,8-naphthyridine-3-carboxamide]
38		53	96.50	CCC(NC(=O)c1cn(-c2ncc(F)cc2F)c2nc(N3C[C@@H](O)[C@H](O)C3)ccc2c1=O)C(F)(F)C(F)(F)F (single isomer, unassigned) [Example 97]
53	97	36		O=C(Nc1c(Cl)cccc1Cl)c1cn(-c2ncc(F)cc2F)c2nc(N3C[C@@H](O)[C@H](O)C3)ccc2c1=O [Example 67, N-(2,6-Dichlorophenyl)-1-(3,5-difluoropyridin-2-yl)-7-[(3R,4R)-3,4-dihydroxypyrrolidin-1-yl]-4-oxo-1,4-dihydro-1,8-naphthyridine-3-carboxamide]
13	84	30		CCC(NC(=O)c1cn(-c2ncc(F)cc2F)c2nc(N3CCNC3=O)ccc2c1=O)C(F)(F)C(F)(F)F (single isomer, unassigned) [Example 165, 1-(3,5-Difluoropyridin-2-yl)-4-oxo-7-(2-oxoimidazolidin-1-yl)-N-[1,1,1,2,2-pentafluoropentan-3-yl]-1,4-dihydro-1,8-naphthyridine-3-carboxamide]
87	98.5	50		O=C(N[C@@H](C1CC1)C(F)(F)F)c1cn(-c2ncc(F)cc2F)c2nc(N3C[C@@H](O)CC3=O)ccc2c1=O [Example 14, N-[(1S)-1-Cyclopropyl-2,2,2-trifluoroethyl]-1-(3,5-difluoropyridin-2-yl)-7-[(4S)-4-hydroxy-2-oxopyrrolidin-1-yl]-4-oxo-1,4-dihydro-1,8-naphthyridine-3-carboxamide]
24		41	100.00	CC(NC(=O)c1cn(-c2ncc(F)cc2F)c2nc(N3C[C@@H](O)[C@H](O)C3)ccc2c1=O)C(F)(F)C(F)(F)F (single isomer, unassigned) [Example 90]
64	99	14		CC[C@H](NC(=O)c1cn(-c2ncc(F)cc2F)c2nc(N3CC(C)CC3=O)ccc2c1=O)C(F)(F)F (stereo partly drawn) [Example 30, 1-(3,5-Difluoropyridin-2-yl)-7-[4-methyl-2-oxopyrrolidin-1-yl]-4-oxo-N-[(2S)-1,1,1-trifluorobutan-2-yl]-1,4-dihydro-1,8-naphthyridine-3-carboxamide]
